We go through 44 compounds from the Deep4Chem optical property database.

Where “and” joins values, the source holds several entries; their conditions need not be identical. Equal entries are not always repeated.

A short description of the series: solvent given as SMILES.

For `O=[N+]([O-])c1ccc([N+]2=CC3=C(O[B-]2(F)F)c2ccccc2SC3)cc1`, the absorption maximum (in ClCCl) is listed as 440 nm.

The compound `Cc1ccc2nc3c(=O)[nH]c(=O)[nH]c3nc2c1C` showed an absorption maximum (in CC#N) of 375 nm.

For the setting “in C1CCOC1”, `C1=Cc2ccccc2C(=Cc2ccc(-c3cc(-c4ccc(C=C5c6ccccc6C=Cc6ccccc65)cc4)c(-c4ccc(C=C5c6ccccc6C=Cc6ccccc65)cc4)cc3-c3ccc(C=C4c5ccccc5C=Cc5ccccc54)cc3)cc2)c2ccccc21` had an absorption maximum of 324 nm.

Regarding `COc1ccc(C2=[N+]3C(=Nc4c(-c5ccccc5)cc(-c5ccc(OC)cc5)n4[B-]3(F)F)C(c3ccccc3)=C2)cc1`, the absorption maximum (in ClC(Cl)Cl) was 688 nm and the absorption maximum (in ClCCl) stood at 688 nm.

Turning to `Cc1ccc(-c2c3nc(c(-c4ccc(C)cc4)c4ccc([nH]4)c(-c4ccc(OC(=O)C(C)c5ccc(CC(C)C)cc5)cc4)c4nc(c(-c5ccc(C)cc5)c5ccc2[nH]5)C=C4)C=C3)cc1` (centres undefined), the absorption maximum (in ClCCl) worked out at 649 nm.

With `CC(C)[Si](C#Cc1ccc(C#C[Si](C(C)C)(C(C)C)C(C)C)c2nc3c(nc12)Cc1ccccc1-3)(C(C)C)C(C)C`, the absorption maximum (in CCCCCC) is given as 369 nm.

Take `COc1cc(/C=C/C(=O)O)ccc1O`: under “in O”, the absorption maximum came to 287 nm.

For `CN(C)c1ccc(/C=C/c2nc3ccccc3s2)cc1`, the absorption maximum (in C1CCCCC1) was determined as 384 nm; the absorption maximum (in C1CCOC1) is 396 nm; the absorption maximum (in C1COCCO1) was 393 nm; the absorption maximum (in CC#N) is given as 401 nm; the absorption maximum (in CC(C)O) was 394 nm; the absorption maximum (in CCCCCC) is 384 nm. This compound yielded an absorption maximum (in CCCCCCC) of 387 nm; an absorption maximum (in CCO) of 396 nm; an absorption maximum (in CCOC(C)=O) of 391 nm; an absorption maximum (in CCOCC) of 390 nm; an absorption maximum (in CN(C)C=O) of 402 nm; an absorption maximum (in CO) of 397 nm. For the same compound, the absorption maximum runs as follows: (in CS(C)=O) 405 nm; (in O) 402 nm; (in OCC(O)CO) 409 nm.

For `CN(C)c1nc(N)nc2c1nc(C#N)n2Cc1ccccc1`, the absorption maximum was found to be 334 nm (in C1COCCO1), 326 nm (in CC#N), 327 nm (in CO) and 324 nm (in ClCCl).

For the compound `COc1ccc([C@@H]2C[C@](O)(c3ccccn3)C[C@](O)(c3ccccn3)[C@H]2C(=O)c2ccc(N(c3ccccc3)c3ccccc3)cc2)cc1`, the absorption maximum (in C1CCOC1) was determined as 366 nm; the absorption maximum (in CC#N) is recorded as 366 nm; the absorption maximum (in CCO) stood at 366 nm; the absorption maximum (in CCOC(C)=O) amounted to 366 nm; the absorption maximum (in CN(C)C=O) stood at 358 nm; the absorption maximum (in ClCCl) was found to be 370 nm. Where the note is “in c1ccccc1”, this compound returned an absorption maximum of 370 nm.

For the compound `COc1ccc(-c2cnc3nn4ccccc4c3c2)cc1`, under “in C1CCOC1”, the absorption maximum came out at 386 nm.

Consider `COc1cc(OC)c2cc(-c3cccc(-c4cc5c(OC)cc(OC)cc5oc4=O)c3)c(=O)oc2c1`, for which the absorption maximum (in ClC(Cl)Cl) is on record as 352 nm.

Regarding `COc1ccc(C#Cc2cc3ccccc3oc2=O)cc1`, the absorption maximum (in CC#N) amounted to 353 nm.

On to `O=C([O-])c1ccccc1C1=c2cc3c4c(c2Oc2c1cc1c5c2CCCN5CCC1)CCC[N+]=4CCC3`, for which the absorption maximum runs as follows: (in CC#N) 577 nm; (in CCO) 564 nm; (in CN(C)C=O) 580 nm; (in O) 575 nm.

Under “in C1CCOC1”, `F[Si-](F)(c1c2ccccc2cc2ccccc12)(c1c2ccccc2cc2ccccc12)c1c2ccccc2cc2ccccc12` came in with an absorption maximum of 392 nm.

For the compound `CCCCCCC(CCCCCC)n1c(=O)c2c3ccc4cccc5c6cccc7ccc(c2c1=O)c(c76)c3c45`, the absorption maximum by setting is: (in C1CCCCC1) 335 nm; (in CC#N) 336 nm; (in CC(C)=O) 336 nm; (in CCCCCC) 334 nm; (in CCO) 336 nm; (in CCOCC) 335 nm. In addition, the absorption maximum is, setting by setting: (in CS(C)=O) 339 nm; (in Cc1ccccc1) 339 nm; (in ClC(Cl)(Cl)Cl) 338 nm; (in ClC(Cl)Cl) 339 nm.

For `Cc1cc(C)c2cc3cc(C)ncc3cc2c1`, the absorption maximum (in CCO) came out at 386.1 nm.

Where the note is “in CC#N”, `CCCCCCCCCC[n+]1cc2ccc3c[n+](CCCCCCCCCC)cc4ccc(c1)c2c34` registered an absorption maximum of 418 nm.

With `CC(C)(C)Nc1oc(C=Cc2ccccc2)c(C(=O)OC(C)(C)C)c1C(=O)OC(C)(C)C`, the absorption maximum (in CC#N) is 384 nm.

Where the note is “in ClCCl”, `N#Cc1cc(/C=C/c2ccc(N(c3ccccc3)c3ccccc3)cc2)ccc1/C=C/c1ccc(/C=C/c2ccc(N(c3ccccc3)c3ccccc3)cc2)cc1C#N` registered an absorption maximum of 447 nm.

`C1=C(c2ccccc2)C(c2ccccc2)C(c2ccccc2)=C1`: the absorption maximum (in C1CCOC1) stood at 304 nm.

Compound `O=C(O)CCCCCn1c2ccc(Br)cc2c(=O)c2cc3c(cc21)c(=O)c1cc(Br)ccc1n3CCCCCC(=O)O` showed an absorption maximum (in CO) of 533 nm.

For the compound `c1ccc(-c2nc(-c3ccc(-c4nc(-c5ccccc5)c(-c5ccccc5)[nH]4)s3)[nH]c2-c2ccccc2)cc1`, the absorption maximum is, setting by setting: (in C1CCOC1) 386 nm; (in CC#N) 385 nm; (in CC(=O)O) 392 nm; (in CC(C)=O) 384 nm and 385 nm; (in CCOC(C)=O) 385 nm; (in CCOCC) 384 nm. Moreover, the absorption maximum reads like this: (in CO) 382 nm; (in ClC(Cl)Cl) 395 nm and 394.99 nm.

In the case of `CCN(CC)c1ccc2cc(/C=C/C(=O)/C=C(O)/C=C/c3cc4ccc(N(CC)CC)cc4oc3=O)c(=O)oc2c1`, the absorption maximum reads like this: (in C1CCOC1) 518 nm; (in C1COCCO1) 514 nm; (in CC#N) 521 nm; (in CC(C)=O) 519 nm; (in CCOC(C)=O) 514 nm; (in CN(C)C=O) 527 nm. Besides, the absorption maximum was determined as 540 nm (in CS(C)=O), 518 nm (in Cc1ccccc1), 520 nm (in ClC(Cl)Cl) and 523 nm (in ClCCl).

As to `CC(C)(C)c1ccc(-c2cc(-c3ccc(-c4cc(-c5ccc(C(C)(C)C)cc5)c(C#N)s4)s3)sc2C#N)cc1`, the absorption maximum (in ClCCl) is listed as 392 nm.

The compound `COc1ccc(C2=Cc3ccccc3[Si]2(c2ccccc2)c2ccccc2)cc1` showed an absorption maximum (in ClCCl) of 350 nm.

As to `CCN(CC)c1ccc([N+]2=Cc3ccc4c5c(ccc4c3O[B-]2(c2ccccc2)c2ccccc2)C=[N+](c2ccc(N(CC)CC)cc2)[B-](c2ccccc2)(c2ccccc2)O5)cc1`, the absorption maximum is 558 nm (in Cc1ccccc1) and 552 nm (in ClCCl).

For the compound `N#Cc1c(/C=C/c2ccc(N(c3ccccc3)c3ccccc3)cc2)cc(-c2ccccc2)cc1N1CCCCC1`, the absorption maximum (in CS(C)=O) is recorded as 398 nm.

`C(#Cc1ccncc1)C(C#Cc1ccncc1)=Cc1ccc(C=C(C#Cc2ccncc2)C#Cc2ccncc2)cc1`: the absorption maximum (in ClC(Cl)Cl) came out at 420 nm.

The compound `CCn1c2c(-c3cccs3)cc(C(C)(C)C)cc2c2cc(C(C)(C)C)cc(-c3cccs3)c21` had an absorption maximum (in ClCCl) of 360 nm.

Consider `O=S(=O)(c1ccc(-c2ccc3c(c2)c2ccccc2n3-c2ccccc2)cc1)c1ccc(-c2ccc3c(c2)c2ccccc2n3-c2ccccc2)cc1`, for which, where the note is “in Cc1ccccc1”, the absorption maximum was determined as 332 nm.

With `CC(C)(C)NC(=O)c1cc2ccc3cccc4ccc(c1C(=O)NC(C)(C)C)c2c34`, for the setting “in ClC(Cl)Cl”, the absorption maximum turned out to be 385 nm.

`CC(C)c1cc(C(C)C)c(B2c3cc(-n4c5ccccc5c5ccccc54)ccc3N(c3ccccc3)c3ccc(-n4c5ccccc5c5ccccc54)cc32)c(C(C)C)c1` gave an absorption maximum (in C1CCCCC1) of 400 nm.

`c1cc2ccc1-c1ccc(cc1)-c1ccc([se]1)-c1ccc(cc1)-c1ccc(cc1)-c1ccc([se]1)-c1ccc(cc1)-c1ccc(cc1)-c1ccc([se]1)-c1ccc(cc1)-c1ccc(cc1)-c1ccc-2[se]1` displayed an absorption maximum (in C1CCOC1) of 370 nm.

As to `COc1ccc(OC)c(C=O)c1`, the absorption maximum is, setting by setting: (in C1CCOC1) 349 nm; (in C1COCCO1) 348 nm; (in CC#N) 349 nm; (in CC(C)=O) 349 nm; (in CCCO) 352 nm; (in CCO) 352 nm. The absorption maximum runs as follows: (in CN(C)C=O) 351 nm; (in CN(C)P(=O)(N(C)C)N(C)C) 352 nm; (in CNC=O) 352 nm; (in CO) 352 nm; (in CS(C)=O) 353 nm; (in ClC(Cl)Cl) 352 nm. The absorption maximum (in NC=O) is given as 356 nm.

Compound `CCCCn1c2ccccc2c2ccc3c4cc(-c5ccc6ccccc6c5)ccc4n(CCCC)c3c21` had an absorption maximum (in ClC(Cl)Cl) of 332 nm.

The compound `c1ccc2c(C3=C(c4cccc5ccccc45)c4cccc5c4c(cc4nc6ccccc6nc45)O3)cccc2c1` showed an absorption maximum (in ClCCl) of 486 nm.

Take `CCCCCCn1c2cc(/C=C(\C#N)c3ccccc3)ccc2c2ccc(/C=C(\C#N)c3ccccc3)cc21`: where the note is “in ClC(Cl)Cl”, the absorption maximum was 423.73 nm.

Consider `CCCCCCCCCCCCN1C(=O)c2ccc3c4ccc5c6c(ccc(c7ccc(c2c37)C1=O)c64)C(=O)N(CCCCCCCCCCCC)C5=O`, for which the absorption maximum (in CN(C)C=O) is on record as 523 nm.

For `CCn1c2ccccc2sc2c(C#N)c3oc4ccccc4oc3c(C#N)c21`, the absorption maximum (in ClC(Cl)Cl) came out at 460 nm.

Consider `N#Cc1cccc(-c2nc(-c3ccccc3)c(-c3ccccc3)[nH]2)c1`, for which the absorption maximum (in CO) was found to be 308 nm.

Consider `O=C(c1ccc(C(=C(c2ccc(C(=O)c3ccc(-n4c5ccccc5c5ccccc54)cc3)cc2)c2ccc(C(=O)c3ccc(-n4c5ccccc5c5ccccc54)cc3)cc2)c2ccccc2)cc1)c1ccc(-n2c3ccccc3c3ccccc32)cc1`, for which, where the note is “in C1CCOC1”, the absorption maximum amounted to 340 nm.

Turning to `COc1ccc(C2=C(c3ccc(C)cc3)C(c3ccccc3)=[N+]3C2=Nc2c(-c4ccc(OC)cc4)c(-c4ccc(C)cc4)c(-c4ccccc4)n2[B-]3(F)F)cc1`, under “in Cc1ccccc1”, the absorption maximum was found to be 656 nm.

Consider `CCOC(=O)CCCCCn1c2ccc(Cl)cc2c(=O)c2cc3c(cc21)c(=O)c1cc(Cl)ccc1n3CCCCCC(=O)OCC`, for which the absorption maximum (in CO) is recorded as 534 nm.
